These are literature values, as cited in publication PMC9499927, “Peptidomimetics designed to bind to RAS effector domain are promising cancer therapeutic compounds” (Scientific Reports, 2022).

For data set [1], the system named is KRAS-mutant colon and pancreatic cancer mouse models. The text has this:
(§1) The unclear results obtained using these experimental approaches has led the scientific community to refocus on the search for direct RAS inhibitors. With this objective, two strategies are currently being followed: the first involves searching for molecules that block the interaction with non-effector RAS proteins that bind to the HVR and/or the allosteric lobe and which modulate RAS activity; and the second is looking for drugs that inhibit the binding of RAS with its effectors[20],[21]. In this context, Rigosertib, a compound that binds to the Ras-binding domain of multiple RAS effector ...

In data set [2] the test system is Ras-binding domain of multiple RAS effectors.
From the text: as §1

Data set [3] deals with patients with previously untreated metastatic pancreatic cancer. The following applies: randomized phase 2/3 trial.
From the text: as §1

Structures are written as SMILES.

Take `COc1cc(OC)c(/C=C/S(=O)(=O)Cc2ccc(OC)c(NCC(=O)O)c2)c(OC)c1` [Rigosertib]: the Tumour growth inhibition result in data set [1] is “proven to inhibit tumour growth”. Also, the Binding result in data set [2] was “binds to the Ras-binding domain of multiple RAS effectors”. Also, the “Clinical benefit of addition to gemcitabine” value in data set [3] is “no benefit”.
